According to patent US8263385B2, “S-triazine-herbicide-degrading bacteria, product for the bioremediation and method of bioremediation” (priority 2007, dated 2012):

Tested on: Pseudomonas sp. strain MHP41
Experiment: Antibiotic sensitivity of strain MHP41
Format: cell-based

Structure (SMILES) | sensitivity or resistance of the strain to the antibiotic
[H]/N=C(/N)N[C@H]1[C@H](O)[C@@H](O)[C@H](O[C@@H]2O[C@@H](C)[C@](O)(C=O)[C@H]2O[C@@H]2O[C@@H](CO)[C@H](O)[C@@H](O)[C@@H]2NC)[C@@H](N/C(N)=N\[H])[C@@H]1O [streptomycin] | sensitive
CC1(C)S[C@@H]2[C@H](NC(=O)C(C(=O)O)c3ccccc3)C(=O)N2[C@H]1C(=O)O (stereo partly drawn) [carbamicillin] | sensitive
CC1(C)S[C@@H]2[C@H](NC(=O)[C@H](N)c3ccccc3)C(=O)N2[C@H]1C(=O)O [ampicillin] | natural resistance
